According to ChEMBL document CHEMBL1201862, “PubChem BioAssay data set” (2004):
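In this assay, cells in 96-well plates receive the compound at five concentrations for 48 hours. Endpoints are linearly interpolated between the surrounding concentrations. Here, GI50 denotes the concentration required for 50% inhibition of growth.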 The source made the active and inactive calls. No stated cut-off is given here; in the data, active = GI50 up to about 1.1 µM and inactive = higher.

Experiments:
Experiment in all cases: DTP human tumour cell line panel, 48 h
786-0 = system: 786-0
A498 = system: A498
A549 = system: A549
ACHN = system: ACHN
CAKI-1 = system: CAKI-1
CCRF-CEM = system: CCRF-CEM
COLO 205 = system: COLO 205
DLD-1 = system: DLD-1
DMS-273 = system: DMS-273
EKVX = system: EKVX
HCC 2998 = system: HCC 2998
HCT-15 = system: HCT-15
HL-60 = system: HL-60
HOP-18 = system: HOP-18
HOP-92 = system: HOP-92
HT-29 = system: HT-29
IGROV-1 = system: IGROV-1
K562 = system: K562
KM-20L2 = system: KM-20L2
KM12 = system: KM12
LOX IMVI = system: LOX IMVI
LXFL 529 = system: LXFL 529
M14 = system: M14
M19-MEL = system: M19-MEL
MOLT-4 = system: MOLT-4
Malme-3M = system: Malme-3M
NCI-H226 = system: NCI-H226
NCI-H23 = system: NCI-H23
NCI-H460 = system: NCI-H460
NCI-H522 = system: NCI-H522
OVCAR-3 = system: OVCAR-3
OVCAR-4 = system: OVCAR-4
OVCAR-5 = system: OVCAR-5
OVCAR-8 = system: OVCAR-8
RPMI-8226 = system: RPMI-8226
RXF 393 = system: RXF 393
SF-268 = system: SF-268
SF-295 = system: SF-295
SF-539 = system: SF-539
SK-MEL-28 = system: SK-MEL-28
SK-MEL-2 = system: SK-MEL-2
SK-MEL-5 = system: SK-MEL-5
SK-OV-3 = system: SK-OV-3
SN12C = system: SN12C
SNB-19 = system: SNB-19
SNB-75 = system: SNB-75
SW-620 = system: SW-620
TK-10 = system: TK-10
U-251 = system: U-251
UACC-257 = system: UACC-257
UACC-62 = system: UACC-62
UO-31 = system: UO-31
XF498 = system: XF498
DMS-114 = system: DMS-114
HCT-116 = system: HCT-116
HOP-62 = system: HOP-62
SNB-78 = system: SNB-78
SR = system: SR
BT-549 = system: BT-549
DU-145 = system: DU-145
Hs-578T = system: Hs-578T
MCF7 = system: MCF7
MDA-MB-231 = system: MDA-MB-231
MDA-MB-435 = system: MDA-MB-435
MDA-N = system: MDA-N
NCI/ADR-RES = system: NCI/ADR-RES
PC-3 = system: PC-3
T47D = system: T47D

O=C(O)CCNS(=O)(=O)c1ccc2ccccc2c1
GI50 (786-0): > 100 µM (inactive)
GI50 (A498): > 100 µM (inactive)
GI50 (A549): > 100 µM (inactive)
GI50 (ACHN): > 100 µM (inactive)
GI50 (CAKI-1): > 100 µM (inactive)
GI50 (CCRF-CEM): > 100 µM (inactive)
GI50 (COLO 205): > 100 µM (inactive)
GI50 (DLD-1): > 100 µM (inactive)
GI50 (DMS-273): > 100 µM (inactive)
GI50 (EKVX): > 100 µM (inactive)
GI50 (HCC 2998): > 100 µM (inactive)
GI50 (HCT-15): > 100 µM
GI50 (HL-60): > 100 µM (inactive)
GI50 (HOP-18): > 100 µM (inactive)
GI50 (HOP-92): > 100 µM (inactive)
GI50 (HT-29): > 100 µM (inactive)
GI50 (IGROV-1): > 100 µM (inactive)
GI50 (K562): > 100 µM (inactive)
GI50 (KM-20L2): > 100 µM (inactive)
GI50 (KM12): > 100 µM (inactive)
GI50 (LOX IMVI): > 100 µM (inactive)
GI50 (LXFL 529): > 100 µM (inactive)
GI50 (M14): > 100 µM (inactive)
GI50 (M19-MEL): > 100 µM (inactive)
GI50 (MOLT-4): > 100 µM (inactive)
GI50 (Malme-3M): > 100 µM (inactive)
GI50 (NCI-H226): > 100 µM (inactive)
GI50 (NCI-H23): > 100 µM (inactive)
GI50 (NCI-H460): > 100 µM (inactive)
GI50 (NCI-H522): > 100 µM (inactive)
GI50 (OVCAR-3): > 100 µM (inactive)
GI50 (OVCAR-4): > 100 µM (inactive)
GI50 (OVCAR-5): > 100 µM (inactive)
GI50 (OVCAR-8): > 100 µM (inactive)
GI50 (RPMI-8226): > 100 µM (inactive)
GI50 (RXF 393): > 10 µM (inactive)
GI50 (SF-268): > 100 µM (inactive)
GI50 (SF-295): > 100 µM (inactive)
GI50 (SF-539): > 100 µM (inactive)
GI50 (SK-MEL-28): > 100 µM (inactive)
GI50 (SK-MEL-2): > 100 µM (inactive)
GI50 (SK-MEL-5): > 100 µM (inactive)
GI50 (SK-OV-3): > 100 µM (inactive)
GI50 (SN12C): > 100 µM (inactive)
GI50 (SNB-19): > 100 µM (inactive)
GI50 (SNB-75): > 100 µM (inactive)
GI50 (SW-620): > 100 µM (inactive)
GI50 (TK-10): > 100 µM (inactive)
GI50 (U-251): > 100 µM (inactive)
GI50 (UACC-257): > 100 µM (inactive)
GI50 (UACC-62): > 100 µM (inactive)
GI50 (UO-31): > 100 µM (inactive)
GI50 (XF498): > 100 µM (inactive)

CC(=O)Nc1ccc(C(=O)N2N=C(C)/C(=C/c3ccccc3O)C2=O)cc1
GI50 (786-0): > 100 µM (inactive)
GI50 (A549): > 100 µM (inactive)
GI50 (ACHN): > 100 µM (inactive)
GI50 (CAKI-1): > 100 µM (inactive)
GI50 (CCRF-CEM): > 100 µM (inactive)
GI50 (COLO 205): > 100 µM (inactive)
GI50 (DLD-1): > 100 µM (inactive)
GI50 (DMS-114): > 100 µM (inactive)
GI50 (DMS-273): > 100 µM (inactive)
GI50 (EKVX): > 100 µM (inactive)
GI50 (HCC 2998): > 100 µM (inactive)
GI50 (HCT-116): > 100 µM (inactive)
GI50 (HCT-15): > 100 µM
GI50 (HL-60): > 100 µM (inactive)
GI50 (HOP-18): 49.3 µM (inactive)
GI50 (HOP-62): > 100 µM (inactive)
GI50 (HT-29): > 100 µM (inactive)
GI50 (K562): > 100 µM (inactive)
GI50 (KM12): > 100 µM (inactive)
GI50 (LOX IMVI): > 100 µM (inactive)
GI50 (M14): > 100 µM (inactive)
GI50 (M19-MEL): > 100 µM (inactive)
GI50 (MOLT-4): > 100 µM (inactive)
GI50 (Malme-3M): > 100 µM (inactive)
GI50 (NCI-H226): > 100 µM (inactive)
GI50 (NCI-H23): > 100 µM (inactive)
GI50 (NCI-H460): > 100 µM (inactive)
GI50 (NCI-H522): > 100 µM (inactive)
GI50 (OVCAR-3): > 100 µM (inactive)
GI50 (OVCAR-4): > 100 µM (inactive)
GI50 (OVCAR-5): > 100 µM (inactive)
GI50 (OVCAR-8): > 100 µM (inactive)
GI50 (RPMI-8226): > 100 µM (inactive)
GI50 (SF-268): > 100 µM (inactive)
GI50 (SF-295): > 100 µM (inactive)
GI50 (SF-539): > 100 µM (inactive)
GI50 (SK-MEL-28): > 100 µM (inactive)
GI50 (SK-MEL-2): > 100 µM (inactive)
GI50 (SK-MEL-5): > 100 µM (inactive)
GI50 (SN12C): > 100 µM (inactive)
GI50 (SNB-19): > 100 µM (inactive)
GI50 (SNB-75): > 100 µM (inactive)
GI50 (SNB-78): > 100 µM (inactive)
GI50 (SR): > 100 µM (inactive)
GI50 (SW-620): > 100 µM (inactive)
GI50 (TK-10): > 100 µM (inactive)
GI50 (UACC-257): > 100 µM (inactive)
GI50 (UO-31): > 100 µM (inactive)
GI50 (XF498): > 100 µM (inactive)

NC1=NCN(C2OC(CO)C(O)C2O)C(=O)N1 (centres undefined)
GI50 (786-0): 4.52 µM (inactive)
GI50 (A498): 6.85 µM (inactive)
GI50 (A549): 18.5 µM (inactive)
GI50 (ACHN): 0.802 µM (active)
GI50 (BT-549): 9.62 µM (inactive)
GI50 (CAKI-1): 69 µM (inactive)
GI50 (CCRF-CEM): 7.19 µM (inactive)
GI50 (COLO 205): 131 µM (inactive)
GI50 (DLD-1): 6.52 µM (inactive)
GI50 (DMS-114): 19 µM (inactive)
GI50 (DMS-273): 7.64 µM (inactive)
GI50 (DU-145): 148 µM (inactive)
GI50 (EKVX): 509 µM (inactive)
GI50 (HCC 2998): 40.4 µM (inactive)
GI50 (HCT-116): 16.6 µM (inactive)
GI50 (HCT-15): 4.5 µM
GI50 (HL-60): 0.838 µM (active)
GI50 (HOP-18): 22.4 µM (inactive)
GI50 (HOP-62): 152 µM (inactive)
GI50 (HOP-92): 391 µM (inactive)
GI50 (HT-29): 42.3 µM (inactive)
GI50 (Hs-578T): 23.4 µM (inactive)
GI50 (IGROV-1): 5.74 µM (inactive)
GI50 (K562): 2.28 µM (inactive)
GI50 (KM-20L2): 14.5 µM (inactive)
GI50 (KM12): 14.1 µM (inactive)
GI50 (LOX IMVI): 2.23 µM (inactive)
GI50 (M14): 5.71 µM (inactive)
GI50 (M19-MEL): 70.6 µM (inactive)
GI50 (MCF7): 9.84 µM (inactive)
GI50 (MDA-MB-231): 38.5 µM (inactive)
GI50 (MDA-MB-435): 6.64 µM (inactive)
GI50 (MDA-N): 7.87 µM (inactive)
GI50 (MOLT-4): 5.21 µM (inactive)
GI50 (Malme-3M): 10.9 µM (inactive)
GI50 (NCI-H226): 5.57 µM (inactive)
GI50 (NCI-H23): > 88.3 µM (inactive)
GI50 (NCI-H460): 5.48 µM (inactive)
GI50 (NCI-H522): 5.26 µM (inactive)
GI50 (NCI/ADR-RES): 705 µM (inactive)
GI50 (OVCAR-3): 38.6 µM (inactive)
GI50 (OVCAR-4): 139 µM (inactive)
GI50 (OVCAR-5): 183 µM (inactive)
GI50 (OVCAR-8): 415 µM (inactive)
GI50 (PC-3): 342 µM (inactive)
GI50 (RPMI-8226): 1.8 µM (inactive)
GI50 (RXF 393): 8.99 µM (inactive)
GI50 (SF-268): 15.1 µM (inactive)
GI50 (SF-295): 43.4 µM (inactive)
GI50 (SF-539): 24.3 µM (inactive)
GI50 (SK-MEL-28): 57.3 µM (inactive)
GI50 (SK-MEL-2): 0.977 µM (active)
GI50 (SK-MEL-5): 42 µM (inactive)
GI50 (SK-OV-3): 126 µM (inactive)
GI50 (SN12C): 349 µM (inactive)
GI50 (SNB-19): 159 µM (inactive)
GI50 (SNB-75): 22.5 µM (inactive)
GI50 (SNB-78): 36.9 µM (inactive)
GI50 (SR): 4.49 µM (inactive)
GI50 (SW-620): 16.7 µM (inactive)
GI50 (T47D): 15 µM (inactive)
GI50 (TK-10): 11.4 µM (inactive)
GI50 (U-251): 27.9 µM (inactive)
GI50 (UACC-257): 49 µM (inactive)
GI50 (UACC-62): 15.2 µM (inactive)
GI50 (UO-31): 145 µM (inactive)
GI50 (XF498): 17.5 µM (inactive)
